Series [1] concerns Cryptococcus neoformans A15053. Kind of series: In vitro antifungal activity, serial agar dilution method (Table 1a). As to conditions: A15053, YM agar (pH 7.0, Difco), 30°C for 2 days (yeast) or 4 days (filamentous fungi), read-out: MICs, Cryptococcus neoformans A15053. Format: cell-based. Here is the method: (§1) The inoculum size was adjusted to 10⁶ cells/ml, and a volume of approximately 0.003 ml of fungal suspension was applied to the surface of the antibiotic containing agar plates with a multiinoculator. After incubation, the lowest concentration of antibiotic causing virtually complete inhibition of fungal growth was determined as the minimum inhibitory concentration (MIC).

For series [2], the system named is Microsporum gypseum WW1107. The series is described as above. Format: cell-based. Conditions: Nannizzia gypsea, YM agar (pH 7.0, Difco), 30°C for 2 days (yeast) or 4 days (filamentous fungi), read-out: MICs, Microsporum gypseum WW1107. Here is the method: as §1
Series [3] deals with Saccharomyces cerevisiae A25803. The series is described as above. As to conditions: YM agar (pH 7.0, Difco), 30°C for 2 days (yeast) or 4 days (filamentous fungi), read-out: MICs, Saccharomyces cerevisiae A25803. The series is classed as cell-based. Here is the method:
as §1

Series [4] has as its system Candida tropicalis A25809. Described as above. The series is classed as cell-based. Conditions: YM agar (pH 7.0, Difco), 30°C for 2 days (yeast) or 4 days (filamentous fungi), read-out: MICs, Candida tropicalis A25809. Here is the method: as §1
Series [5] concerns Candida tropicalis A25812. The series is described as above. The series is classed as cell-based. As to conditions: A25812, YM agar (pH 7.0, Difco), 30°C for 2 days (yeast) or 4 days (filamentous fungi), read-out: MICs, Candida tropicalis A25812. Here is the method:
as §1

Series [6] has as its system Microsporum canis WW10218. Described as above. The series is classed as cell-based. Conditions: WW10218, pH 7, read-out: MICs, Microsporum canis WW10218. Here is the method: as §1
Another series concerns Candida albicans A25578. The series is described as above. Format: cell-based. As to conditions: A25578, YM agar (pH 7.0, Difco), 30°C for 2 days (yeast) or 4 days (filamentous fungi), read-out: MICs, Candida albicans A25578. Here is the method: as §1
In series [7] the test system is Trichophyton mentagrophytes A26771. Described as above. The series is classed as cell-based. Conditions: A26771, YM agar (pH 7.0, Difco), 30°C for 2 days (yeast) or 4 days (filamentous fungi), read-out: MICs, Trichophyton mentagrophytes A26771. Here is the method: as §1
For series [8], the system named is Trichophyton rubrum A26761. The series is described as above. The series is classed as cell-based. Conditions: A26761, pH 7, read-out: MICs, Trichophyton rubrum A26761. Here is the method:
as §1

Series [9] has as its system Candida albicans A9540. The description is as above. Format: cell-based. Conditions: A9540, YM agar (pH 7.0, Difco), 30°C for 2 days (yeast) or 4 days (filamentous fungi), read-out: MICs, Candida albicans A9540. Here is the method: as §1
Series [10] relates to Candida pseudotropicalis A25802. The description is as above. The series is classed as cell-based. As to conditions: Kluyveromyces marxianus, YM agar (pH 7.0, Difco), 30°C for 2 days (yeast) or 4 days (filamentous fungi), read-out: MICs, Candida pseudotropicalis A25802. Here is the method: as §1
The subject of series [11] is Candida paratropicalis A25825. The description is as above. The series is classed as cell-based. Conditions: YM agar (pH 7.0, Difco); 30°C for 2 days (yeast) or 4 days (filamentous fungi); read-out: MICs, Candida paratropicalis A25825. Here is the method:
as §1

Series [12] is described as follows: Water solubility, protocol I (PBS, HPLC). Format: physicochemical. Conditions: Method I: PBS without CaCl₂ and MgCl₂.6H₂O. Here is the method: The supernatant (2 µL) was analyzed by HPLC using the conditions specified for each compound in the Experimental Section. […] When not soluble, an additional amount of PBS (x µL) was added, sonicated, and centrifuged. When visibly soluble, the solution (2 µL) was injected to HPLC and the peak area was used for the known concentration of the sample.

Series [13] has as its system Blastomyces dermatidis D40. Put plainly: In vitro antifungal activity, serial agar dilution method (Table 1). Format: cell-based. Here is the method:
(§2) The inoculum size was adjusted to 10⁶ cells/ml, and a volume of approximately 0.003 ml of fungal suspension was applied to the surface of the antibiotic containing agar plates with a multiinoculator. After incubation, the lowest concentration of antibiotic causing virtually complete inhibition of fungal growth was determined as the minimum inhibitory concentration (MIC). Table 1. [table]

The test system of series [14] is Petriellidium boydii IFO8078. Described as above. Format: cell-based. Conditions: Sabouraud dextrose agar (pH 7.0), 28°C for 40 hours. Here is the method: as §2
In a further series the test system is Candida albicans IAM4888. The series is described as above. As to conditions: Sabouraud dextrose agar (pH 7.0), 28°C for 40 hours. Format: cell-based. Here is the method:
as §2

Series [15] relates to Trichophyton mentagrophytes D155. Described as above. The series is classed as cell-based. As to conditions: Sabouraud dextrose agar (pH 7.0), 28°C for 40 hours. Here is the method: as §2
In series [16] the test system is Trichophyton mentagrophytes #4329. The description is as above. Format: cell-based. Conditions: Sabouraud dextrose agar (pH 7.0), 28°C for 40 hours. Here is the method: as §2
The test system of series [17] is Fusarium moniliforme A2284. The description is as above. The series is classed as cell-based. As to conditions: Sabouraud dextrose agar (pH 7.0), 28°C for 40 hours. Here is the method:
as §2

In series [18] the test system is Aspergillus fumigatus IAM2530. The description is as above. Format: cell-based. As to conditions: Sabouraud dextrose agar (pH 7.0), 28°C for 40 hours. Here is the method: as §2
In series [19] the test system is Cryptococcus neoformans IAM4514. Described as above. Format: cell-based. Conditions: Sabouraud dextrose agar (pH 7.0), 28°C for 40 hours. Here is the method: as §2
Series [20] has as its system Aspergillus fumigatus IAM2034. The series is described as above. The series is classed as cell-based. Conditions: Sabouraud dextrose agar (pH 7.0), 28°C for 40 hours. Here is the method:
as §2

The subject of series [21] is Cryptococcus neoformans D49. The series is described as above. Format: cell-based. Here is the method:
as §2

Series [22] deals with Candida albicans A9540. The description is as above. Format: cell-based. As to conditions: Sabouraud dextrose agar (pH 7.0), 28°C for 40 hours. Here is the method: as §2
For another series, the system named is Mucor spinosus IFO5317. The series is described as above. The series is classed as cell-based. Conditions: Sabouraud dextrose agar (pH 7.0), 28°C for 40 hours. Here is the method: as §2
The test system of series [23] is Sprotricosis schenckii IFO8158. The description is as above. Format: cell-based. Here is the method:
as §2

For another series, the system named is FA21436. The description is as above. The series is classed as cell-based, Asoergukkys flavus. Here is the method:
as §2

Where [24] appears, read: Sabouraud dextrose agar (pH 7.0), 28°C for 40 hours.

In brackets after ≈: the same amount, converted by molar mass.

We go through four compounds from patent EP0428132A1, “Pradimicin derivatives” (Bristol-Myers Squibb Company, priority 1989, dated 1991).

As for `COc1cc(O)c2c(c1)C(=O)c1c(cc3c(c1O)-c1c(cc(C)c(C(=O)N[C@H](C)C(=O)O)c1O)[C@H](O[C@@H]1O[C@H](C)[C@H](N(C)C(=O)NS(=O)(=O)c4ccc(C)cc4)[C@H](O)[C@H]1O)[C@H]3O)C2=O` [Ex. 19, N-(p-toluenesulfonylcarbamyl) pradimicin B], the MIC amounted to 6.3 µg/mL (≈ 6.95 µM) in [1]; 50 µg/mL (≈ 55.2 µM) in series [2]; 3.2 µg/mL (≈ 3.53 µM) in series [3]; 6.3 µg/mL (≈ 6.95 µM) in [4]; 12.5 µg/mL (≈ 13.8 µM) in [5]; 12.5 µg/mL (≈ 13.8 µM) in [6]. Besides, the MIC with Candida albicans A25578 is 12.5 µg/mL (≈ 13.8 µM); in series [7], 50 µg/mL (≈ 55.2 µM); in series [8], 50 µg/mL (≈ 55.2 µM); with Candida albicans A9540 [9], 12.5 µg/mL (≈ 13.8 µM); in series [10], 3.2 µg/mL (≈ 3.53 µM); in series [11], 25 µg/mL (≈ 27.6 µM).
In the case of `C=CCN(C)[C@@H]1[C@H](O[C@@H]2OC[C@@H](O)[C@H](O)[C@H]2O)[C@@H](O)[C@H](O[C@H]2c3cc(C)c(C(=O)N[C@H](C)C(=O)O)c(O)c3-c3c(cc4c(c3O)C(=O)c3cc(OC)cc(O)c3C4=O)[C@@H]2O)O[C@@H]1C` [Ex. 22, N-(Allyl) pradimicin A], the MIC in series [1] was 0.4 µg/mL (≈ 0.454 µM); in [2], above 50 µg/mL; in series [5] it was above 50 µg/mL; in [6], 1.6 µg/mL (≈ 1.82 µM); with Candida albicans A25578, 3.2 µg/mL (≈ 3.63 µM); in [7] it was above 50 µg/mL. Also, the MIC in the series on Candida albicans A9540 [9] was above 50 µg/mL; in series [10] it was 3.2 µg/mL (≈ 3.63 µM); in series [11] it was above 50 µg/mL. The same compound returned a solubility in series [12] of 5000 µg/mL (≈ 5680 µM).
For `COC(=O)/C=C/CN(C)[C@@H]1[C@H](O[C@@H]2OC[C@@H](O)[C@H](O)[C@H]2O)[C@@H](O)[C@H](O[C@H]2c3cc(C)c(C(=O)N[C@H](C)C(=O)O)c(O)c3-c3c(cc4c(c3O)C(=O)c3cc(OC)cc(O)c3C4=O)[C@@H]2O)O[C@@H]1C` [compound 12, N-(trans-3-methoxycarbonyl-2-propenyl) pradimicin A], the MIC in series [13] (Blastomyces, D40, 40 h, pH 7, read-out: MIC, Blastomyces dermatidis D40) is above 25 µg/mL; in series [14] (Scedosporium boydii, IFO8078) it was above 25 µg/mL; against Candida albicans IAM4888 (Candida albicans, IAM4888) it was 25 µg/mL (≈ 26.6 µM); in series [15] (Trichophyton mentagrophytes, D155), 12.5 µg/mL (≈ 13.3 µM); in [16] (Trichophyton mentagrophytes), 25 µg/mL (≈ 26.6 µM); in [17] (Fusarium verticillioides, A2284), above 25 µg/mL. Also, the MIC was 12.5 µg/mL (≈ 13.3 µM) in [18] (Aspergillus fumigatus, IAM2530); 6.3 µg/mL (≈ 6.71 µM) in [19] (Cryptococcus neoformans, IAM4514); 12.5 µg/mL (≈ 13.3 µM) in [20] (Aspergillus fumigatus, IAM2034); 6.3 µg/mL (≈ 6.71 µM) in series [21] (Cryptococcus neoformans, D49, 40 h, pH 7, read-out: MIC, Cryptococcus neoformans D49); above 25 µg/mL in the series with Candida albicans A9540 [22] (Candida albicans, A9540); above 25 µg/mL against Mucor spinosus IFO5317 (Mucor spinosus, IFO5317). The MIC was 12.5 µg/mL (≈ 13.3 µM) in series [23] (40 h, pH 7, read-out: MIC, Sprotricosis schenckii IFO8158) and 25 µg/mL (≈ 26.6 µM) with FA21436 (40 h, pH 7, read-out: MIC, Asoergukkys flavus FA21436).
In the case of “N-(sodiosulfomethyl) pradimicin A [Ex. 8]”, the “MIC, Blastomyces dermatidis D40” value in series [13] (setting [24]) was determined as 1.6 µg/mL. Besides, the “MIC, Petriellidium boydii IFO8078” value in series [14] amounted to 6.3 µg/mL. For the same compound, the “MIC, Candida albicans IAM4888” value against Candida albicans IAM4888 came to 3.1 µg/mL. For the same compound, the “MIC, Trichophyton mentagrophytes D155” value in series [15] came to 6.3 µg/mL. Further, the “MIC, Trichophyton mentagrophytes #4329” value in series [16] is 3.1 µg/mL. Also, the “MIC, Fusarium moniliforme A2284” value in series [17] came to 3.1 µg/mL. Moreover, the “MIC, Aspergillus fumigatus IAM2530” value in series [18] worked out at 1.6 µg/mL. In [19], the “MIC, Cryptococcus neoformans IAM4514” value amounted to 0.8 µg/mL. The “MIC, Aspergillus fumigatus IAM2034” value in [20] worked out at 3.1 µg/mL. In series [21] (setting [24]), the “MIC, Cryptococcus neoformans D49” value amounted to 0.8 µg/mL. In addition, in the series on Candida albicans A9540 [22], the “MIC, Candida albicans A9540” value was 6.3 µg/mL. Besides, in the series with Mucor spinosus IFO5317, the “MIC, Mucor spinosus IFO5317” value is above 50.0 µg/mL. In addition, the “Partial Inhibition, Mucor spinosus IFO5317” value in the series on Mucor spinosus IFO5317 (value in parentheses = Partial Inhibition) is 6.3 µg/mL. In series [23] (setting [24]), the “MIC, Sprotricosis schenckii IFO8158” value is 1.6 µg/mL. Besides, the “MIC, Asoergukkys flavus FA21436” value in the series with FA21436 (setting [24]) is 6.3 µg/mL.
